Series [1] relates to HIV-1 protease. Details: method as in PMID 8185622. The conditions noted are these: binding activity of the experimental ligands on HIV-1 protease; cited from earlier work.
The test system of series [2] is HIV-1 III B. Nature of the series: Microtiter infection assay, protection of MT-4 cells from HIV cytopathic effect (MTT). The series is classed as cell-based. The conditions noted are these: for Infection assay MTT- % cell survival / inhibition of virus infectivity / viral replication in MT-4 cells: HIV-1-infected MT-4 cells; for Infection assay MTT- % cell survival: compound at MNC, 72–96 hours. The protocol:
The evaluation of anti-HIV effect was done by an in vitro rapid and sensitive microtiter infection assay based on cytolysis quantitation by vital dye (MTT) uptake as an endpoint for infection. Additionally, the effect of inhibitors on endogenous reverse transcriptase (RT) activity of HIV-1 III B-infected MT-4 supernatants was considered as a marker for the ability of blocking HIV-1 replication. MT-4 cells were infected and incubated with each inhibitor for 72–96 hours, and then RT activity was measured in the cell supernatants according to guidelines in the HS-Lenti Kit-RT assay (Cavidi, Sweden). A study of direct effect of the newly synthesized 4-hydroxycoumarins on exogenous recombinant RT (rRT) was also performed. Further, all the compounds were tested for anti-HIV-1 PR activity. Table 3 represents the results of microtiter infection assay using MTT and inhibition of HIV-1 PR activity. The experiments were carried out in maximal nontoxic concentration (MNC) for each compound.
MT-4—a human lymphoblastoid suspension cell line, kindly provided by Gianfranco Pancino— Institute Pasteur, (Unite de Regulation des Infections Retrovirales, Paris, France) represent a classical model for experimental productive infection with HIV-1 III B strain and used as a routine target for study of effect of putative HIV inhibitors in cell culture.
As a source of HIV-1, supernatants of H9/HTLV III B line—a gift from Dr. R. Gallo (NIH, USA)— were used. Supernatants were collected and centrifuged to remove the cells, and virus stocks were prepared with known p24 antigen content (460 pg/mL, Murex HIV Antigen mAB test), RT activity (565.3 pg RT/mL, HS-Lenti RT Activity Kit, Cavidi, Sweden), and infectivity (2 × 10^6 infectious virions/mL, microtiter infection assay). MT-4 and H9/HTLV III B cells were grown in RPMI 1640 supplemented with 10% FCS (invitrogen).
(§1) The following parameters were studied: cytotoxic concentration 50—CC50, where possible (the concentration preventing death of 50% of MT-2 cells), maximal nontoxic concentration—MNC, and inhibitory concentration 50-IC50 (concentration inhibiting by 50% the viral replication). CC50 and MNC were detected by MTT uptake assay. IC50 was studied on MT-4 cells by microtiter infection assay exploring the protection of cells from the cytopathic effect of HIV measured by MTT test. Experiments under conditions of acute infection were performed in 96-well microplates with 6–8 parallels/experiment. Cell controls (MT-4 cells with medium only) and viral controls (virus infected MT-4 cells) were run with each experiment. For antivirus assays, HIV was added to each well to obtain multiplicity of infection 0.1 except the cell controls. Virus attachment was allowed for an hour at 37°C/5% CO2. The plates were incubated for 72–96 hours at 37°C/5% CO2. After that, MTT test was performed as described and absorbance of viable cells was measured colorimetrically at A540 nm. […] For antiviral assays, the mean values of experimental and control rows were compared and the percentage of cells protected (cell survival) under the appropriate concentration of the substance was plotted against the concentration of the substance to obtain IC50. The cell survival (% of cell protection) was calculated according to the following formula:
(1) % cell protection =A540X−A540 Control HIV/ A540 Cell Control−A540 Control HIV ×100, where X is the mean value of A540 of HIV-infected cells treated with appropriate concentration of the compound under study; control HIV is the mean value of A540 of HIV-infected cells without any compound added; cell control is the mean value of A540 of uninfected and untreated with inhibitor cells.

The target of series [3] is T1, native HIV-1 protease (Human immunodeficiency virus type 1 group M subtype B, UniProt P04585).
T1 construct: The lysis of viral particles and releasing of the active enzyme (protease) was performed using disrupting (lysis) buffer; endogenous in cells; host or cells: Virions from supernatants of chronically infected H9/HTLV IIIB cells, concentrated 50x and lysed with Triton X-100
Nature of the series: Antiprotease activity using native viral PR, spectrophotometric substrate utilization. The series is classed as biochemical. The conditions noted are these: compound at MNC. Here is the method:
A method described earlier by Broglia et al., 2006 [19], for detection of recombinant protease activity was modified to use native viral protease. As a source of native HIV-1 protease, again suspension of concentrated viral stock (50x) from chronically infected H9/HTLV IIIB cell supernatants was used. The lysis of viral particles and releasing of the active enzyme (protease) was performed using disrupting (lysis) buffer containing 2.5% Triton X-100 in phosphate buffer. The concentration of the tissue culture fluid containing the virus was done by ultracentrifugation in Biofuge Stratos, Heraeus, for 1 hour, at 4°C and 35000 rev/min. The pellet was resuspended to obtain 50x concentrate in disrupting buffer.
The following reaction mixture was prepared for each experiment : 1000 μL phosphate buffer (20 mM, pH 6.0); 20 μL HIV protease substrate III ([…], 760 μM; Bachem, Switzerland) in DMSO, prepared ex tempore; 20 μL enzyme (stock HIV) taken from a solution containing 25 μL disrupting (lysis) buffer + 100 μL HIV-stock, incubated 40 min at 37°C prior to experiment.
The HIV-1 PR activity was measured using direct spectrophotometric reading of the enzyme reaction substrate utilization at 300 nm, at room temperature and 1 cm pathlength, using T80 + UV-Vis spectrophotometer (PG instruments). The initial reaction velocity (V0) was adjusted to be 0.0020–0.0030 ΔAbs/min by varying the enzyme activity (viral concentration). The tested compound and the reference inhibitor (pepstatin used here) was added to the reaction mixture prior to enzyme, in order to perform the screening for inhibitory effect. IC50 was defined as the concentration of the compound tested that decreases the velocity of the reaction by 50% of the initial velocity without tested (reference) compound.

Series [4] has as its system MT-4 cells. Nature of the series: Cytotoxicity by MTT uptake assay (maximal nontoxic concentration). The conditions noted are these: for maximal nontoxic concentration (MNC): MTT uptake assay; for maximal nontoxic concentration (MNC) / maximal nontoxic concentration (MNC), concentration tested: Table 3; for maximal nontoxic concentration (MNC), concentration tested: reference inhibitors. Format: cell-based. The protocol:
The compounds under study were first dissolved in DMSO and further diluted in cell growth medium without fetal serum. All the solutions were prepared ex tempore.
as §1, with “CC50” for “The following parameters were studied: cytotoxic concentration 50—CC50, where possible (the concentration preventing death of 50% of MT-2 cells), maximal nontoxic concentration—MNC, and inhibitory concentration 50-IC50 (concentration inhibiting by 50% the viral replication). CC50”, “formula: […]” for “formula:”

pIC50: −log10 of the molar value. Non-standard residues stand in square brackets, D forms with d. Residues, ends and D or L forms follow the SMILES beside them. *: point of attachment. Sta = CC(C)C[C@H](N)[C@@H](O)CC(=O)O; Isovaleryl = CC(C)CC(=O)*

The text below walks through data of paper PMC3263710, “Synthesis and Inhibiting Activity of Some 4-Hydroxycoumarin Derivatives on HIV-1 Protease” (ISRN Pharmaceutics, 2011).

For the molecule “3-(3,4-dimethoxybenzyl)-4-hydroxy-2H-chromen-2-one [Ligand (2)]”, in series [1], the pIC50 is 4.08.

On to “3-(3,4-dimethoxybenzyl)-4-hydroxy-8-methyl-2H-chromen-2-one [Ligand (3)]”, for which the pIC50 in series [1] was 4.64.

“3-benzyl-4-hydroxy-8-phenyl-2H-chromen-2-one [Ligand (4)]”: the pIC50 in series [1] was 5.09.

Turning to “4-hydroxy-3-(1-phenoxypropyl)-2H-chromen-2-one [Ligand (1)]”, the pIC50 in series [1] was 5.57.

Regarding “4-hydroxy-3-(3-oxo-1-phenylbutyl)-2H-chromen-2-one [Ligand (5)]”, the pIC50 in series [1] was 4.74.

`CCOC(=O)C(C(C)=O)C(c1ccc([N+](=O)[O-])cc1)c1c(O)c2ccccc2oc1=O` (stereo not shown) [(8), Ethyl 2-[(4-Hydroxy-2-Oxo-2H-Chromen-3-yl)(4-Nitrophenyl)Methyl]-3-Oxobutanoate]: the “Infection assay MTT- % cell survival” value in series [2] was 0%. Also, the “% Inhibition of HIV-1 protease activity” value in series [3] is 0%. Further, the “maximal nontoxic concentration (MNC)” value in series [4] is given as “(8) (0.001) μM”.

Turning to `CCOC(=O)C(C(C)=O)C(c1ccc(O)cc1)c1c(O)c2ccccc2oc1=O` (stereo not shown) [(9), Ethyl 2-[(4-Hydroxy-2-Oxo-2H-Chromen-3-yl)(4-Hydroxyphenyl)Methyl]-3-Oxobutanoate], in series [2], the “Infection assay MTT- % cell survival” value was 0%. In addition, in series [3], the “% Inhibition of HIV-1 protease activity” value is on record as 0%. In series [4], the “maximal nontoxic concentration (MNC)” value was “(9) (0.0001) μM”.

Take `CCOC(=O)C(C(C)=O)C(c1ccc(O)c(O)c1)c1c(O)c2ccccc2oc1=O` (stereo not shown) [(10), Ethyl 2-[(3,4-Dihydroxyphenyl)(4-Hydroxy-2-Oxo-2H-Chromen-3-yl)Methyl]-3-Oxobuta-Noate]: in series [2], the “inhibition of virus infectivity / viral replication in MT-4 cells” value was “inhibited viral replication” and the “Infection assay MTT- % cell survival” value is on record as 30%. Moreover, the “% Inhibition of HIV-1 protease activity” value in series [3] is reported as 16%. Besides, in series [4], the “maximal nontoxic concentration (MNC)” value is “(10) (0.0001) μM”.

Regarding `CCOC(=O)C(C(C)=O)C(c1ccc(C(=O)O)cc1)c1c(O)c2ccccc2oc1=O` (stereo not shown) [(11), 4-[1-(4-Hydroxy-2-Oxo-2H-Chromen-3-yl)-2-(Ethoxycarbonyl)-3-Oxobutyl]Benzoic Acid], the “Infection assay MTT- % cell survival” value in series [2] is recorded as 0%. In series [3], the “% Inhibition of HIV-1 protease activity” value amounted to 0%. Also, the “maximal nontoxic concentration (MNC)” value in series [4] is reported as “(11) (0.0001) μM”.

Regarding `CC(=O)C(C(C)=O)C(c1ccc(O)cc1)c1c(O)c2ccccc2oc1=O` (stereo not shown) [(12), 3-[(4-Hydroxy-2-Oxo-2H-Chromen-3-yl)(4-Hydroxyphenyl)Methyl]Pentane-2,4-Dione], the “Infection assay MTT- % cell survival” value in series [2] is on record as 0%. The “% Inhibition of HIV-1 protease activity” value in series [3] stood at 0%. Besides, in series [4], the “maximal nontoxic concentration (MNC)” value is given as “(12) (0.001) μM”.

On to `Nc1nc(NC2CC2)c2ncn([C@H]3C=C[C@@H](CO)C3)c2n1` [Abacavir, reference compound], for which the “Infection assay MTT- % cell survival” value in series [2] was determined as 98%. Further, in series [4], the “maximal nontoxic concentration (MNC), concentration tested” value is “Abacavir® (35 × 10^−6 M)”.

Regarding `CCOC(=O)C(C(C)=O)C(c1cccc([N+](=O)[O-])c1)c1c(O)c2ccccc2oc1=O` (stereo not shown) [Compound (7), Ethyl 2-[(4-Hydroxy-2-Oxo-2H-Chromen-3-yl)(3-Nitrophenyl)Methyl]-3-Oxobutanoate], in series [2], the “inhibition of virus infectivity / viral replication in MT-4 cells” value is 76–78% and the “Infection assay MTT- % cell survival” value is listed as 78%. Further, in series [2] (Human immunodeficiency virus 1, MT4, read-out: IC50 (concentration inhibiting by 50% the viral replication)), the pIC50 is 11.00. Moreover, the “% Inhibition of HIV-1 protease activity” value in series [3] is 25%. Besides, the “maximal nontoxic concentration (MNC)” value in series [4] was “(7) (0.001) μM”. The molecule also displayed a maximal nontoxic concentration in series [4] (as stated in abstract) of 1 mM.

As to `CC(C)CC(=O)N[C@H](C(=O)N[C@H](C(=O)N[C@@H](CC(C)C)[C@@H](O)CC(=O)N[C@@H](C)C(=O)N[C@@H](CC(C)C)[C@@H](O)CC(=O)O)C(C)C)C(C)C` [Pepstatin, pepstatin, reference compound] (Isovaleryl-VV[Sta]A[Sta]-OH), the “% Inhibition of HIV-1 protease activity” value in series [3] is given as 100%. Further, in series [4], the “maximal nontoxic concentration (MNC), concentration tested” value was “Pepstatin® (4.5 × 10^−5 M)”.
